The text below walks through data of PubChem BioAssay (NCI).

Some test systems named below: CAKI-1 renal; U251 CNS; SN12C renal; SF-268 CNS; HCT-116 colon; EKVX NSCLC; CCRF-CEM leukemia; SK-MEL-2 melanoma; UO-31 renal.
What all share (assay): growth of human tumour cells (NCI), 48 h

Molecules are shown by their SMILES.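 Cultured in 96-well plates, cells were exposed to test compound for 48 hours across five concentrations. The concentration for 50% growth inhibition is given as GI50. The concentration for full growth arrest is given as TGI.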

`O=C(O)C1C2CC3CC2CC31` (centres undefined): the TGI in the assay on CAKI-1 renal, with U251 CNS, with SN12C renal, in the assay on SF-268 CNS, with HCT-116 colon and in the assay on EKVX NSCLC was greater than 100 µM throughout. The TGI in the assay on CCRF-CEM leukemia, with SK-MEL-2 melanoma and in the assay with UO-31 renal was greater than 100 µM throughout.
Regarding `C[C@@H]1CC[C@H]2C(CN3CCN(CC4=C(C(F)(F)F)O[C@@H]5O[C@@]6(C)CC[C@H]7[C@H](C)CC[C@@H]4[C@@]57OO6)CC3)=C(C(F)(F)F)O[C@@H]3O[C@@]4(C)CC[C@@H]1[C@]32OO4`, the GI50 in the assay on CAKI-1 renal was 3.16 µM; in the assay with U251 CNS, 0.653 µM; in the assay on SN12C renal, 3.85 µM; with SF-268 CNS, 4.24 µM; in the assay with HCT-116 colon, 0.262 µM; in the assay on EKVX NSCLC, 3.14 µM. Moreover, the GI50 in the assay with CCRF-CEM leukemia was 0.605 µM; with SK-MEL-2 melanoma, 10.6 µM; with UO-31 renal, 2.67 µM. Moreover, the TGI is greater than 33.5 µM with CAKI-1 renal; greater than 39.9 µM in the assay with U251 CNS; greater than 100 µM in the assay with SN12C renal; greater than 100 µM with SF-268 CNS; greater than 35.9 µM in the assay on HCT-116 colon; greater than 100 µM in the assay on EKVX NSCLC. The figures for the TGI with CCRF-CEM leukemia, in the assay with SK-MEL-2 melanoma and in the assay with UO-31 renal were greater than 100 µM, greater than 100 µM and 85.8 µM, respectively.
`COCCOCCOCCOCCOc1ccc2c(c1)C(=O)c1nc3ncccc3c(=O)n1-2`: the GI50 in the assay on CAKI-1 renal is 0.663 µM; in the assay with U251 CNS, 1.29 µM; in the assay with SN12C renal, 1.38 µM; in the assay on SF-268 CNS, 1.54 µM; in the assay with HCT-116 colon, 1.56 µM; in the assay with EKVX NSCLC, 1.87 µM. Besides, the figures for the GI50 in the assay with CCRF-CEM leukemia, in the assay on SK-MEL-2 melanoma and in the assay on UO-31 renal were 2.43 µM, 2.42 µM and 1.53 µM, respectively. In addition, the TGI with CAKI-1 renal stood at 2.02 µM; with U251 CNS, 2.56 µM; with SN12C renal, 2.91 µM; with SF-268 CNS, 5.17 µM; with HCT-116 colon it was 4.46 µM; in the assay with EKVX NSCLC, 5.28 µM. The TGI in the assay with CCRF-CEM leukemia stood at 7.4 µM; with SK-MEL-2 melanoma it was 6.21 µM; in the assay on UO-31 renal, 6.21 µM.
In the case of `CC(C)=CCC[C@](C)(O)[C@H]1CC[C@]2(C)[C@@H]1CC[C@@H]1[C@@]3(C)CC[C@H](OC(=O)CCC(=O)O)C(C)(C)[C@@H]3CC[C@]12C`, the GI50 in the assay on CAKI-1 renal was 24.7 µM; in the assay on U251 CNS it was 28.1 µM; with SN12C renal, 25.5 µM; with SF-268 CNS, 29.9 µM; with HCT-116 colon, 56.5 µM; in the assay with EKVX NSCLC, 37.9 µM. For the same compound, the GI50 was 12.1 µM in the assay with CCRF-CEM leukemia, 25.3 µM with SK-MEL-2 melanoma and 13.7 µM in the assay with UO-31 renal. For the same compound, the TGI is greater than 100 µM with CAKI-1 renal; greater than 100 µM with U251 CNS; 78.1 µM in the assay on SN12C renal; greater than 100 µM in the assay on SF-268 CNS; greater than 100 µM with HCT-116 colon; greater than 100 µM in the assay with EKVX NSCLC. The TGI with CCRF-CEM leukemia was determined as 58 µM; in the assay with SK-MEL-2 melanoma, 85.6 µM; with UO-31 renal, 28 µM.
Take `CC(C)(C)c1ccc(C(O)(c2ccc(C(C)(C)C)cc2)c2ccc(C(C)(C)C)cc2)cc1`: the TGI in the assay on CAKI-1 renal, in the assay on U251 CNS, in the assay on SN12C renal, with SF-268 CNS, in the assay on HCT-116 colon and in the assay on EKVX NSCLC was greater than 100 µM in each case. Further, the TGI in the assay with CCRF-CEM leukemia, in the assay on SK-MEL-2 melanoma and in the assay on UO-31 renal was greater than 100 µM in each case.
On to `COc1cc(C=NCC(=O)CSC(c2ccccc2)c2ccccc2)cc(OC)c1OC`, for which the GI50 is 25.2 µM with CAKI-1 renal; 32.2 µM in the assay on U251 CNS; 25.8 µM in the assay on SN12C renal; 34.6 µM in the assay with SF-268 CNS; 14.1 µM with HCT-116 colon; 27.8 µM with EKVX NSCLC. In addition, the GI50 with CCRF-CEM leukemia is 5.41 µM; with SK-MEL-2 melanoma, 19.6 µM; in the assay on UO-31 renal, 22.6 µM. In addition, the TGI in the assay with CAKI-1 renal, in the assay on U251 CNS, in the assay with SN12C renal, in the assay with SF-268 CNS, in the assay on HCT-116 colon and with EKVX NSCLC was greater than 100 µM throughout. The TGI was greater than 100 µM in the assay on CCRF-CEM leukemia, 50 µM with SK-MEL-2 melanoma and greater than 100 µM in the assay on UO-31 renal.
Turning to `Cc1cc(I)cc(CN(C)CCCCN2CCCC2)c1O`, the GI50 with CAKI-1 renal is 17.5 µM; in the assay with U251 CNS, 18.9 µM; with SN12C renal, 52.2 µM; in the assay with SF-268 CNS, 18.1 µM; in the assay on HCT-116 colon, 13.1 µM; in the assay with EKVX NSCLC it was 34.8 µM. Moreover, the figures for the GI50 with CCRF-CEM leukemia, with SK-MEL-2 melanoma and with UO-31 renal were 31.3 µM, 18.2 µM and 28.2 µM, respectively. Besides, the TGI is 38.9 µM in the assay with CAKI-1 renal; 49.5 µM with U251 CNS; greater than 100 µM in the assay with SN12C renal; 55.7 µM in the assay with SF-268 CNS; 40 µM in the assay with HCT-116 colon; greater than 100 µM in the assay on EKVX NSCLC. Also, the TGI in the assay with CCRF-CEM leukemia was greater than 100 µM; in the assay on SK-MEL-2 melanoma it was 34.8 µM; in the assay on UO-31 renal, greater than 100 µM.
On to `CCc1ccc(/C=C2/SC(=S)NC2=O)cc1`, for which the GI50 in the assay on CAKI-1 renal is 24 µM; in the assay with U251 CNS, 18.7 µM; in the assay with SN12C renal, 20.3 µM; in the assay on SF-268 CNS, 24.5 µM; in the assay with HCT-116 colon, 21 µM; in the assay on EKVX NSCLC, 21.9 µM. Further, the GI50 with CCRF-CEM leukemia is 22.6 µM; in the assay on SK-MEL-2 melanoma, 16.4 µM; with UO-31 renal, 13.2 µM. Moreover, the TGI in the assay with CAKI-1 renal is greater than 81.5 µM; in the assay on U251 CNS, 62.6 µM; with SN12C renal, 81.4 µM; in the assay with SF-268 CNS, greater than 100 µM; in the assay with HCT-116 colon it was 59.5 µM; with EKVX NSCLC it was 73.2 µM. Moreover, the TGI was greater than 80.4 µM with CCRF-CEM leukemia, 41.3 µM with SK-MEL-2 melanoma and 33.1 µM with UO-31 renal.
As for `O=C(O)CCN1C(=O)/C(=C/C(Cl)=C/c2ccccc2)SC1=S`, the GI50 is 2.2 µM in the assay with CAKI-1 renal; 1.66 µM in the assay with U251 CNS; 2.67 µM in the assay with SN12C renal; 3.15 µM with SF-268 CNS; 1.82 µM in the assay on HCT-116 colon; 3.75 µM in the assay on EKVX NSCLC. Besides, the values for the GI50 with CCRF-CEM leukemia, in the assay with SK-MEL-2 melanoma and in the assay on UO-31 renal were 1.87 µM, 2.16 µM and 1.56 µM, respectively. Also, the TGI in the assay on CAKI-1 renal is 5.62 µM; in the assay on U251 CNS it was 3.16 µM; in the assay with SN12C renal, 9.41 µM; with SF-268 CNS it was 20.2 µM; in the assay with HCT-116 colon it was 5.06 µM; in the assay with EKVX NSCLC, 14.2 µM. The TGI with CCRF-CEM leukemia is 8.25 µM; in the assay on SK-MEL-2 melanoma, 6.27 µM; in the assay on UO-31 renal it was 3.06 µM.
